Results taken from US8063077B2, “Factor Xa inhibitors” (Millennium Pharmaceuticals, Inc., priority 2006, dated 2011).

Each compound was assayed against T1, human plasma protein factor Xa (Homo sapiens, UniProt P00742) (assay: Factor Xa IC50 determination, cleavage of paranitroanilide substrate S-2765). Settings: factor Xa 1 nM, S2765 100 μM, Tris buffered saline pH 7.4, 5% DMSO.
T1 construct: The human plasma protein factor Xa was purchased from Haematologic Technologies; purchased Haematologic Technologies (Essex Junction, Vt.); host or cells: human plasma
T1 sequence (P00742 235-488 limits assumed): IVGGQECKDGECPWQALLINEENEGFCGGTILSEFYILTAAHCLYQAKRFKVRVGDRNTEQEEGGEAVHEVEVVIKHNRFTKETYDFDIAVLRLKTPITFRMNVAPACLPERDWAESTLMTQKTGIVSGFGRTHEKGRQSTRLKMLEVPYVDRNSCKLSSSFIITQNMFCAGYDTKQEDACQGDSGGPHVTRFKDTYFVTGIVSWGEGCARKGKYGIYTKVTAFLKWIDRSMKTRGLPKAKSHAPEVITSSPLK
T1 sequence (P00742 41-179 partner limits assumed): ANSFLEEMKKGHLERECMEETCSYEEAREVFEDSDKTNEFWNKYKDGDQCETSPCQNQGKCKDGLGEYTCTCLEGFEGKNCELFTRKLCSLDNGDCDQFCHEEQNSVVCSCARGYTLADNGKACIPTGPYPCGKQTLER
Type: biochemical
From the text: This example illustrates methods for evaluating the compounds of the invention, along with results obtained for such assays. The in vitro and in vivo human Factor Xa activities of the inventive compounds can be determined by various procedures known in the art, such as a test for their ability to inhibit the activity of human plasma Factor Xa. […] The IC50 value is the concentration (in nM) of the compound required to provide 50% inhibition of human Factor Xa proteolytic activity.
An in vitro assay for detecting and measuring inhibition activity against Factor Xa is as follows:
The substrate S-2765 (Z-D-Arg-Gly-Arg-pNA•HCl) was obtained from Diapharma (West Chester, Ohio).
The human plasma protein factor Xa was purchased from Haematologic Technologies (Essex Junction, Vt.).
All assays, which are performed in 96-well microtiter plates, measure proteolytic activity of the enzyme (factor Xa) by following cleavage of a paranitroanilide peptide substrate. The assay buffer used for proteolytic assays was Tris buffered saline (20 mM Tris, 150 mM NaCl, 5 mM CaCl2, 0.1% Bovine serum albumin (BSA), 5% Dimethly Sulfoxide (DMSO) pH 7.4). In a 96-well microtiter plate, inhibitor was serially diluted to give a range of final concentrations from 0.01 nM to 10 μM. Duplicate sets of wells were assayed and control wells without inhibitor were included. Enzyme was added to each well, (factor Xa concentration=1 nM), the plate was shaken for 5 seconds and then incubated for 5 minutes at room temperature. S2765 was added (100 μM final) and the plate was shaken for 5 seconds (final volume in each well was 200 μl). The degree of substrate hydrolysis was measured at 405 nm on a Thermomax plate reader (Molecular Devices, Sunnyvale, Calif.) for 2 minutes. The initial velocities of substrate cleavage (mOD/min), for each range of inhibitor concentrations, were fitted to a four parameter equation using Softmax data analysis software. The parameter C, derived from the resulting curve-fit, corresponded to the concentration for half maximal inhibition (IC50).

| Structure (SMILES) | IC50 [nM] |
| --- | --- |
| O=C(NCc1cn(-c2ccc(-n3ncccc3=O)cc2)cn1)c1ccc(Cl)s1 [Compound 13, 5-Chloro-N-((1-(4-(6-oxopyridazin-1(6H)-yl)phenyl)-1H-imidazol-4-yl)methyl)thiophene-2-carboxamide] | ≥ 500 |
| O=C(NCc1cn(-c2ccc(N3CCS(=O)(=O)CC3=O)cc2)cn1)c1ccc(Cl)s1 [Compound 16, 5-Chloro-N-((1-(4-(1,1-dioxo-3-oxothiomorpholino)phenyl)-1H-imidazol-4-yl)methyl)thiophene-2-carboxamide] | ≥ 500 |
| O=C(NCc1cn(-c2ccc(N3CC[S+]([O-])CC3=O)cc2)cn1)c1ccc(Cl)s1 (stereo not shown) [Compound 17, 5-Chloro-N-((1-(4-(1,3-dioxothiomorpholino)phenyl)-1H-imidazol-4-yl)methyl)thiophene-2-carboxamide] | 100 to 500 |
| O=C(NCc1cn(-c2ccc(N3CCNC3=O)cc2)cn1)c1ccc(Cl)s1 [Compound 19, 5-Chloro-N-((1-(4-(2-oxoimidazolidin-1-yl)phenyl)-1H-imidazol-4-yl)methyl)thiophene-2-carboxamide] | 100 to 500 |
| O=C1CN(c2ccc(-n3cnc(CNC(=O)c4ccc(Cl)s4)c3)cc2)C(=O)CN1 [Compound 20, 5-Chloro-N-((1-(4-(2,5-dioxopiperazin-1-yl)phenyl)-1H-imidazol-4-yl)methyl)thiophene-2-carboxamide] | ≥ 500 |
| O=C(NCc1cn(-c2ccc(-n3ccccc3=O)cc2O)cn1)c1ccc(Cl)s1 [Compound 28, 5-Chloro-N-((1-(2-hydroxy-4-(2-oxopyridin-1(2H)-yl)phenyl)-1H-imidazol-4-yl)methyl)thiophene-2-carboxamide] | 100 to 500 |
| COC(=O)c1cc(-n2ccccc2=O)ccc1-n1cnc(CNC(=O)c2ccc(Cl)s2)c1 [Compound 29, 5-Chloro-N-((1-(2-methoxycarbonyl-4-(2-oxopyridin-1(2H)-yl)phenyl)-1H-imidazol-4-yl)methyl)thiophene-2-carboxamide] | ≥ 500 |
| O=C(NCc1cn(-c2ccc(-n3ccccc3=O)cc2)cn1)c1ccc2cc[nH]c2c1 [Compound 31, N-((1-(4-(2-oxopyridin-1(2H)-yl)phenyl)-1H-imidazol-4-yl)methyl)-1H-indole-6-carboxamide] | ≥ 500 |
| N#C/N=c1\ccccn1-c1ccc(-n2cnc(CNC(=O)c3ccc(Cl)s3)c2)cc1 [Compound 33, (E)-5-chloro-N-((1-(4-(2-(cyanoimino)pyridin-1(2H)-yl)phenyl)-1H-imidazol-4-yl)methyl)thiophene-2-carboxamide] | ≤ 100 |
| C/N=c1\ccccn1-c1ccc(-n2cnc(CNC(=O)c3ccc(Cl)s3)c2)cc1 [Compound 34, (E)-5-chloro-N-((1-(4-(2-(methylimino)pyridin-1(2H)-yl)phenyl)-1H-imidazol-4-yl)methyl)thiophene-2-carboxamide] | ≤ 100 |
| COc1ccc(/N=c2\ccccn2-c2ccc(-n3cnc(CNC(=O)c4ccc(Cl)s4)c3)cc2)cc1 [Compound 35, (E)-5-chloro-N-((1-(4-(2-(4-methoxyphenylimino)pyridin-1(2H)-yl)phenyl)-1H-imidazol-4-yl)methyl)thiophene-2-carboxamide] | ≤ 100 |

Other lines, results leading:

| IC50 [nM] | Structure (SMILES) |
| --- | --- |
| ≤ 100 | O=C(NCc1cn(-c2ccc(N3CCOCC3=O)cc2)cn1)c1ccc(Cl)s1 [Compound 11, 5-Chloro-N-((1-(4-(3-oxomorpholino)phenyl)-1H-imidazol-4-yl)methyl)thiophene-2-carboxamide] |
| ≤ 100 | O=C(NCc1cn(-c2ccc(-n3ccncc3=O)cc2)cn1)c1ccc(Cl)s1 [Compound 12, 5-Chloro-N-((1-(4-(2-oxopyrazin-1(2H)-yl)phenyl)-1H-imidazol-4-yl)methyl)thiophene-2-carboxamide] |
| ≤ 100 | Cc1cccc(=O)n1-c1ccc(-n2cnc(CNC(=O)c3ccc(Cl)s3)c2)cc1 [Compound 14, 5-chloro-N-((1-(4-(6-methyl-2-oxopyridin-1(2H)-yl)phenyl)-1H-imidazol-4-yl)methyl)thiophene-2-carboxamide] |
| ≤ 100 | O=C(NCc1cn(-c2ccc(N3CCSCC3=O)cc2)cn1)c1ccc(Cl)s1 [Compound 15, 5-Chloro-N-((1-(4-(3-oxothiomorpholino)phenyl)-1H-imidazol-4-yl)methyl)thiophene-2-carboxamide] |
| ≤ 100 | O=C(NCc1cn(-c2ccc(N3CCCNC3=O)cc2)cn1)c1ccc(Cl)s1 [Compound 18, 5-Chloro-N-((1-(4-(2-oxo-tetrahydropyrimidin-1(2H)-yl)phenyl)-1H-imidazol-4-yl)methyl)thiophene-2-carboxamide] |
| ≤ 100 | O=C(NCc1cn(-c2ccc(-n3ccccc3=O)cc2F)cn1)c1ccc(Cl)s1 [Compound 21, 5-Chloro-N-((1-(2-fluoro-4-(2-oxopyridin-1(2H)-yl)phenyl)-1H-imidazol-4-yl)methyl)thiophene-2-carboxamide] |
| ≤ 100 | CS(=O)(=O)c1cc(-n2ccccc2=O)ccc1-n1cnc(CNC(=O)c2ccc(Cl)s2)c1 [Compound 22, 5-Chloro-N-((1-(2-(methylsulfonyl)-4-(2-oxopyridin-1(2H)-yl)phenyl)-1H-imidazol-4-yl)methyl)thiophene-2-carboxamide] |
| ≤ 100 | C[S+]([O-])c1cc(-n2ccccc2=O)ccc1-n1cnc(CNC(=O)c2ccc(Cl)s2)c1 (stereo not shown) [Compound 23, 5-chloro-N-((1-(2-(methylsulfinyl)-4-(2-oxopyridin-1(2H)-yl)phenyl)-1H-imidazol-4-yl)methyl)thiophene-2-carboxamide] |
| ≤ 100 | O=C(NCc1cn(-c2ccc(-n3ccccc3=O)cc2N2CCSCC2)cn1)c1ccc(Cl)s1 [Compound 24, 5-Chloro-N-((1-(4-(2-oxopyridin-1(2H)-yl)-2-thiomorpholinophenyl)-1H-imidazol-4-yl)methyl)thiophene-2-carboxamide] |
| ≤ 100 | O=C(NCc1cn(-c2ccc(-n3ccccc3=O)cc2N2CCS(=O)(=O)CC2)cn1)c1ccc(Cl)s1 [Compound 25, 5-Chloro-N-((1-(4-(2-oxopyridin-1(2H)-yl)-2-(1,1-dioxo-thiomorpholin-4-yl)phenyl)-1H-imidazol-4-yl)methyl)thiophene-2-carboxamide] |
| ≤ 100 | O=C1CN(c2cc(-n3ccccc3=O)ccc2-n2cnc(CNC(=O)c3ccc(Cl)s3)c2)CCN1 [Compound 26, 5-Chloro-N-((1-(2-(3-oxopiperazin-1-yl)-4-(2-oxopyridin-1(2H)-yl)phenyl)-1H-imidazol-4-yl)methyl)thiophene-2-carboxamide] |
| ≤ 100 | O=C(NCc1cn(-c2ccc(-n3ccccc3=O)cc2NCCO)cn1)c1ccc(Cl)s1 [Compound 27, 5-Chloro-N-((1-(2-(2-hydroxyethylamino)-4-(2-oxopyridin-1(2H)-yl)phenyl)-1H-imidazol-4-yl)methyl)thiophene-2-carboxamide] |
| ≤ 100 | O=C(NCc1cn(-c2ccc(-n3ccccc3=S)cc2)cn1)c1ccc(Cl)s1 [Compound 30, 5-Chloro-N-((1-(4-(2-thioxopyridin-1(2H)-yl)phenyl)-1H-imidazol-4-yl)methyl)thiophene-2-carboxamide] |
| ≤ 100 | C#Cc1ccc(C(=O)NCc2cn(-c3ccc(-n4ccccc4=O)cc3)cn2)s1 [Compound 32, 5-Ethynyl-N-((1-(4-(2-oxopyridin-1(2H)-yl)phenyl)-1H-imidazol-4-yl)methyl)thiophene-2-carboxamide] |
